Earlier results as cited in patent publication US10463613B2, “Cromolyn compositions for treatment of chronic cough due to idiopathic pulmonary fibrosis” (Respivant Sciences GmbH, priority 2016, dated 2019).
Like-named read-outs stand apart in the source and are kept apart here.

Settings: in vivo

SMILES: O=C([O-])c1cc(=O)c2c(OCC(O)COc3cccc4oc(C(=O)O)cc(=O)c34)cccc2o1.[Na+] [cromolyn sodium, disodium 5,5′-(2-hydroxypropane-1,3-diyl)bis(oxy)bis(4-oxo-4H-chromene-2-carboxylate)]
- Bioavailability of available formulations: approximately 1%
- Oral bioavailability: ~1%
- Oral bioavailability (listed as cromolyn): about 1%
